Data: patent publication US20250289804A1, “SUBSTITUTED INDOLE COMPOUNDS AND METHODS OF USE THEREOF” (NOVARTIS PHARMA AG, priority 2021, published 2025)
Read-outs that look alike come from different tables or passages of the source.

Legend:
[1] = target: human C3bBb (Homo sapiens (Human), UniProt P00751); assay: Human C3bBb enzyme assay (C3a generation from C3, ELISA); assay type: biochemical; settings: read-out: Human C3b:Bb IC50 Avg
Procedure, shortened: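 C3bBb was preformed from human C3b, CFB and CFD at 1 μM each (30 min, RT) in PBS pH 7.4 with 100 μM NiCl2 and 0.05% CHAPS. Then 3 nM complex with 1 μM human C3 was incubated with compound for 1 h at RT. C3a was quantified by ELISA against a standard curve, and IC50 came from a 10-point 4-parameter fit.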

[2] = test system: MAC formation in normal human serum; assay: Human serum MAC formation assay (zymosan-coated plates, 50% normal human serum); settings: 50% normal human serum with EGTA, 37° C. 30 minutes
Procedure, shortened: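 Compounds preincubated 15 min at RT with 50% normal human serum in gelatin buffer plus 20 mM EGTA, then complement activated 30 min at 37 °C on zymosan-coated plates. C9 neoepitope ELISA, fluorogenic readout. Percent inhibition vs EDTA-serum baseline and EGTA-serum maximum; IC50 from 4-parameter fit of 10-point curves.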

[3] = starred values: assay conducted with 1 nM C3b:Bb enzyme
[4] = 3 nM C3bBb complex, 1 μM human C3, 1 hour room temperature

human C3bBb, sequence (P00751 260-764): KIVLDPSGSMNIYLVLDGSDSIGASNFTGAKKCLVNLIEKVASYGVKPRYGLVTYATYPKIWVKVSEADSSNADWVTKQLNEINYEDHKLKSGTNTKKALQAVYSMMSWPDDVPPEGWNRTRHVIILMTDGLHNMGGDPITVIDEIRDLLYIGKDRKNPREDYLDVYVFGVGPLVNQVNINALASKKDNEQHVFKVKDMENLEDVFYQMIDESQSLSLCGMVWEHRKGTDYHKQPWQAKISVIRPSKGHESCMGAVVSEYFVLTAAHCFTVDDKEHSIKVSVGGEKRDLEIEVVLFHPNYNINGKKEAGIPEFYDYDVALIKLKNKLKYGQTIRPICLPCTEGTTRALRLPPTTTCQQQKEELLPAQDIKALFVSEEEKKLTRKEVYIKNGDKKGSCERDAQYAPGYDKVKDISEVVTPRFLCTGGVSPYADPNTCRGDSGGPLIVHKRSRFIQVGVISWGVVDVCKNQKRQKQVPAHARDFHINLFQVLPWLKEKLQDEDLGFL
human C3bBb, sequence (P01024 23-667 partner): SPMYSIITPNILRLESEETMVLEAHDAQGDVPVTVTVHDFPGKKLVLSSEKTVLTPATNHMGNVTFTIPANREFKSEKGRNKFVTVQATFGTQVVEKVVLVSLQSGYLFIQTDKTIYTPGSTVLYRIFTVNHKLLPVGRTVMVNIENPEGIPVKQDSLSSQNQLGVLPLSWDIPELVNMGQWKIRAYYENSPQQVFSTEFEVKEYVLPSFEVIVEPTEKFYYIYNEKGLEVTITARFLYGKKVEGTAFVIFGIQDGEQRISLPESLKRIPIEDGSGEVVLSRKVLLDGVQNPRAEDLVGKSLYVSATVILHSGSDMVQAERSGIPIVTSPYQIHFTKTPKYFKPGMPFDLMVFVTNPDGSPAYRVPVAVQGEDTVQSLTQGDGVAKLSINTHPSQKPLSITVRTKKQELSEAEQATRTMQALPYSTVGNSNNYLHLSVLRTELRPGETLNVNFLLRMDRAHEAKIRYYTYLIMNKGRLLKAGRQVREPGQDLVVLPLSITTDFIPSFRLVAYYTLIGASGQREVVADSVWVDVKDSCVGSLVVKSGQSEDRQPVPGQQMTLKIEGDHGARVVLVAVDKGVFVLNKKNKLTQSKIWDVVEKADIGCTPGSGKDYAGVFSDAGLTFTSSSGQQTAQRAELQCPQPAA
human C3bBb, sequence (P01024 749-1663 partner): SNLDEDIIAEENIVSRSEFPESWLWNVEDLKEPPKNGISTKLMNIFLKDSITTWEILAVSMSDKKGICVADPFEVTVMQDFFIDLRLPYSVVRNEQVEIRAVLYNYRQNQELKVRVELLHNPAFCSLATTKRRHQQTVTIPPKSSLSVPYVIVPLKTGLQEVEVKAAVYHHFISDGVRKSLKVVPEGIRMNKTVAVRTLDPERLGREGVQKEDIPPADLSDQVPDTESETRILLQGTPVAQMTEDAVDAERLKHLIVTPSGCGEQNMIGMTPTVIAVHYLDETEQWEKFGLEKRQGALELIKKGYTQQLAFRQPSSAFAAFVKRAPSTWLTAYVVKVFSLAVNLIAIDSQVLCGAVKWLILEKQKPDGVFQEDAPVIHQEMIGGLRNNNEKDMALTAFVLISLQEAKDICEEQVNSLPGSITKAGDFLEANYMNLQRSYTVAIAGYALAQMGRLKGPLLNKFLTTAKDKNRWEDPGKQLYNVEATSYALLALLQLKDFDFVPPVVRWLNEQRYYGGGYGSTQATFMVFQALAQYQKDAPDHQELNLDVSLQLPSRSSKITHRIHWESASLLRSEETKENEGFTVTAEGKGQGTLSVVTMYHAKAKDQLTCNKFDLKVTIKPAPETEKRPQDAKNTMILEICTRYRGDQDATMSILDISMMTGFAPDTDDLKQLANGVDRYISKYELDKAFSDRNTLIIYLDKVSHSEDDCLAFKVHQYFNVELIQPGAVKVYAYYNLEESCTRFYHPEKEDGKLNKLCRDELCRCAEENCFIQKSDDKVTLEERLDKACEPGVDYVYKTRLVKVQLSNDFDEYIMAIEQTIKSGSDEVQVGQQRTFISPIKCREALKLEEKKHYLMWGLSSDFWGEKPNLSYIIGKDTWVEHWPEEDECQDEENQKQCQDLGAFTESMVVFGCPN

Row | SMILES | IC50 [1, 3] [nM] | IC50 [2] [nM] | IC50 [1, 4] [nM]
1 | COc1cc(C)c2[nH]ccc2c1CN1CC[C@H](NCC2(F)CC2)C[C@H]1c1ccc(C(=O)O)cc1 [Example 23, 4-((2S,4S)-4-(((1-fluorocyclopropyl)methyl)amino)-1-((5-methoxy-7-methyl-1H-indol-4-yl)methyl)piperidin-2-yl)benzoic acid] | 50 to 100 | 300 to 500 | –
2 | COc1cc(C)c2[nH]ccc2c1CN1CC[C@H](NC2CC(F)(F)C2)C[C@H]1c1ccc(C(=O)O)cc1 [Example 24, 4-((2S,4S)-4-((3,3-difluorocyclobutyl)amino)-1-((5-methoxy-7-methyl-1H-indol-4-yl)methyl)piperidin-2-yl)benzoic acid] | 10 to 25 | 200 to 300 | –
3 | Cc1cc(C2CC2)c(CN2CC[C@H](NC3CC(F)(F)C3)C[C@H]2c2ccc(C(=O)O)cc2)c2cc[nH]c12 [Example 25, 4-((2S,4S)-1-((5-cyclopropyl-7-methyl-1H-indol-4-yl)methyl)-4-((3,3-difluorocyclobutyl)amino)piperidin-2-yl)benzoic acid] | < 10 | < 100 | –
4 | COc1cc(C)c2[nH]ccc2c1CN1CC[C@H](NCC2CC2)C[C@H]1c1ccc(C(=O)O)cc1 [Example 26, 4-((2S,4S)-4-((cyclopropylmethyl)amino)-1-((5-methoxy-7-methyl-1H-indol-4-yl)methyl)piperidin-2-yl)benzoic acid] | 50 to 100 | 100 to 200 | –
5 | COc1cc(C)c2[nH]ccc2c1CN1CC[C@H](OC(F)F)C[C@H]1c1ccc(C(=O)O)cc1 [Example 28, 4-((2S,4S)-4-(difluoromethoxy)-1-((5-methoxy-7-methyl-1H-indol-4-yl)methyl)piperidin-2-yl)benzoic acid] | < 10 | 100 to 200 | –
6 | COc1cc(C)c2[nH]ccc2c1CN1CC[C@@H](OC(F)F)C[C@@H]1c1ccc(C(=O)O)cc1 [Example 29, 4-((2R,4R)-4-(difluoromethoxy)-1-((5-methoxy-7-methyl-1H-indol-4-yl)methyl)piperidin-2-yl)benzoic acid] | – | > 500 | > 100
7 | COc1cc(C)c2[nH]ccc2c1CN1CCC2(COC2)C[C@H]1c1ccc(C(=O)O)cc1 [Example 32, (S)-4-(7-((5-methoxy-7-methyl-1H-indol-4-yl)methyl)-2-oxa-7-azaspiro[3.5]nonan-6-yl)benzoic acid] | < 10 | < 100 | –
8 | COc1cc(C)c2[nH]ccc2c1CN1CC[C@H](c2ccccn2)C[C@H]1c1ccc(C(=O)O)cc1 [Example 38, 4-((2S,4S)-1-((5-methoxy-7-methyl-1H-indol-4-yl)methyl)-4-(pyridin-2-yl)piperidin-2-yl)benzoic acid] | – | 200 to 300 | 50 to 100
9 | COc1cc(C)c2[nH]ccc2c1CN1CC2(CCC2)[C@H]1c1ccc(C(=O)O)cc1 [Example 40, (R)-4-(2-((5-methoxy-7-methyl-1H-indol-4-yl)methyl)-2-azaspiro[3.3]heptan-1-yl)benzoic acid] | – | 300 to 500 | > 100
10 | COc1cc(C)c2[nH]ccc2c1CN1CC[C@H](CCC(F)(F)F)C[C@H]1c1ccc(C(=O)O)cc1 [Example 42, 4-((2S,4S)-1-((5-methoxy-7-methyl-1H-indol-4-yl)methyl)-4-(3,3,3-trifluoropropyl)piperidin-2-yl)benzoic acid] | < 10 | 200 to 300 | –
11 | COc1cc(C)c2[nH]ccc2c1CN1CC[C@H](CC2CC2)C[C@H]1c1ccc(C(=O)O)cc1 [Example 44, 4-((2S,4S)-4-(cyclopropylmethyl)-1-((5-methoxy-7-methyl-1H-indol-4-yl)methyl)piperidin-2-yl)benzoic acid] | < 10 | < 100 | –
12 | COc1cc(C)c2[nH]ccc2c1CN1CCC2(C[C@H]1c1ccc(C(=O)O)cc1)CC(F)(F)C2 [Example 45, (S)-4-(2,2-difluoro-7-((5-methoxy-7-methyl-1H-indol-4-yl)methyl)-7-azaspiro[3.5]nonan-6-yl)benzoic acid] | < 10 | < 100 | –
13 | COc1cc(C)c2[nH]ccc2c1CN1CCC2(C[C@H]1c1ccc(C(=O)O)c(F)c1)CC(F)(F)C2 [Example 50, (S)-4-(2,2-difluoro-7-((5-methoxy-7-methyl-1H-indol-4-yl)methyl)-7-azaspiro[3.5]nonan-6-yl)-2-fluorobenzoic acid] | < 10 | < 100 | –
14 | COc1cc(C)c2[nH]ccc2c1CN1CCC2(C[C@H]1c1ccc(C(=O)O)cc1)CC1(CC1)C2 [Example 51, (S)-4-(8-((5-methoxy-7-methyl-1H-indol-4-yl)methyl)-8-azadispiro[2.1.5^5.1^3]undecan-7-yl)benzoic acid] | < 10 | < 100 | –
15 | COc1cc(C)c2[nH]cc(Cl)c2c1CN1CCC2(C[C@H]1c1ccc(C(=O)O)cc1)CC(F)(F)C2 [Example 53, (S)-4-(7-((3-chloro-5-methoxy-7-methyl-1H-indol-4-yl)methyl)-2,2-difluoro-7-azaspiro[3.5]nonan-6-yl)benzoic acid] | < 10 | < 100 | –
16 | COc1cc(C)c2[nH]cc(F)c2c1CN1CCC2(C[C@H]1c1ccc(C(=O)O)cc1)CC(F)(F)C2 [Example 54, (S)-4-(2,2-difluoro-7-((3-fluoro-5-methoxy-7-methyl-1H-indol-4-yl)methyl)-7-azaspiro[3.5]nonan-6-yl)benzoic acid] | < 10 | < 100 | –
17 | COc1cc(C)c2[nH]ccc2c1CN1CCC2(CC(=O)C2)C[C@H]1c1ccc(C(=O)O)cc1 [Example 58, (S)-4-(7-((5-methoxy-7-methyl-1H-indol-4-yl)methyl)-2-oxo-7-azaspiro[3.5]nonan-6-yl)benzoic acid] | < 10 | 100 to 200 | –
18 | COc1cc(C)c2[nH]ccc2c1CN1CC[C@]2(C[C@H]1c1ccc(C(=O)O)cc1)C[C@@H](F)C2 [Example 61, 4-((2S,4r,6S)-2-fluoro-7-((5-methoxy-7-methyl-1H-indol-4-yl)methyl)-7-azaspiro[3.5]nonan-6-yl)benzoic acid and 4-((2R,4s,6S)-2-fluoro-7-((5-methoxy-7-methyl-1H-indol-4-yl)methyl)-7-azaspiro[3.5]nonan-6-yl)benzoic acid] | < 10 | < 100 | –
19 | COc1cc(C)c2[nH]ccc2c1CN1CCN(CC(F)(F)F)C[C@H]1c1ccc(C(=O)O)cc1 [Example 65, (R)-4-(1-((5-methoxy-7-methyl-1H-indol-4-yl)methyl)-4-(2,2,2-trifluoroethyl)piperazin-2-yl)benzoic acid] | 10 to 25 | 200 to 300 | –
20 | COc1cc(C)c2[nH]ccc2c1CN1CCN(CC(F)F)C[C@H]1c1ccc(C(=O)O)cc1 [Example 66, (R)-4-(4-(2,2-difluoroethyl)-1-((5-methoxy-7-methyl-1H-indol-4-yl)methyl)piperazin-2-yl)benzoic acid] | 25 to 50 | 100 to 200 | –
21 | COc1cc(C)c2[nH]ccc2c1CN1CCN(CC2CC(F)(F)C2)C[C@H]1c1ccc(C(=O)O)cc1 [Example 67, (R)-4-(4-((3,3-difluorocyclobutyl)methyl)-1-((5-methoxy-7-methyl-1H-indol-4-yl)methyl)piperazin-2-yl)benzoic acid] | 50 to 100 | 300 to 500 | –
22 | COc1cc(C)c2[nH]ccc2c1CN1CCN(CCC(F)(F)F)C[C@H]1c1ccc(C(=O)O)cc1 [Example 68, (R)-4-(1-((5-methoxy-7-methyl-1H-indol-4-yl)methyl)-4-(3,3,3-trifluoropropyl)piperazin-2-yl)benzoic acid] | < 10 | 100 to 200 | –
23 | COc1cc(C)c2[nH]ccc2c1CN1CCN(CC2(F)COC2)C[C@H]1c1ccc(C(=O)O)cc1 [Example 69, (R)-4-(4-((3-fluorooxetan-3-yl)methyl)-1-((5-methoxy-7-methyl-1H-indol-4-yl)methyl)piperazin-2-yl)benzoic acid] | 50 to 100 | 100 to 200 | –
24 | COc1cc(C)c2[nH]ccc2c1CN1CCN(CCF)C[C@H]1c1ccc(C(=O)O)cc1 [Example 70, (R)-4-(4-(2-fluoroethyl)-1-((5-methoxy-7-methyl-1H-indol-4-yl)methyl)piperazin-2-yl)benzoic acid] | 25 to 50 | 200 to 300 | –
25 | COc1cc(C)c2[nH]ccc2c1CN1CC[C@H](N2CC(OC(F)(F)F)C2)C[C@H]1c1ccc(C(=O)O)cc1 [Example 72, 4-((2S,4S)-1-((5-methoxy-7-methyl-1H-indol-4-yl)methyl)-4-(3-(trifluoromethoxy)azetidin-1-yl)piperidin-2-yl)benzoic acid] | 25 to 50 | 200 to 300 | –
26 | COc1cc(C)c2[nH]ccc2c1CN1CC[C@H](N2CC(C#N)C2)C[C@H]1c1ccc(C(=O)O)cc1 [Example 73, 4-((2S,4S)-4-(3-cyanoazetidin-1-yl)-1-((5-methoxy-7-methyl-1H-indol-4-yl)methyl)piperidin-2-yl)benzoic acid] | < 10 | 100 to 200 | –
27 | COc1cc(C)c2[nH]ccc2c1CN1CC[C@H](N2CC(C(F)F)C2)C[C@H]1c1ccc(C(=O)O)cc1 [Example 74, 4-((2S,4S)-4-(3-(difluoromethyl)azetidin-1-yl)-1-((5-methoxy-7-methyl-1H-indol-4-yl)methyl)piperidin-2-yl)benzoic acid] | < 10 | 100 to 200 | –
28 | COc1cc(C)c2[nH]cc(Cl)c2c1CN1CC[C@H](N2CC(C(F)(F)F)C2)C[C@H]1c1ccc(C(=O)O)cc1 [Example 75, 4-((2S,4S)-1-((3-chloro-5-methoxy-7-methyl-1H-indol-4-yl)methyl)-4-(3-(trifluoromethyl)azetidin-1-yl)piperidin-2-yl)benzoic acid] | 10 to 25 | 200 to 300 | –
